Measured values as given in patent US20250025451A1, “TREATMENT OF CANCER WITH KDM4 INHIBITORS” (Celgene Corporation, priority 2021, published 2025).

Tested on: 301 cancer cell lines from different tumor types
Assay: 2D cell viability inhibition assay, broad cancer cell line panel (OncoPanel; CellTiter-Glo)
Assay type: cell-based
Design: key to Emax: % of DMSO control (minimum response over dose range); AUC: scale not given here
Conditions: for AUC / Emax: 168 hours; for Emax: in % (unit assumed)
Description: In a larger screening study, compound 1 was evaluated across a broad cancer cell line panel (OncoPanel; HD Biosciences) composed of 301 cancer cell lines from different tumor types.
2D cell viability inhibition assays were performed in multiwell plates seeded with cells from the panel. After seeding, the plates were cultured overnight in a humidified incubator at 37° C. to promote adherence. Assays were initiated in individual wells by adding either DMSO as a vehicle control, growth media as a blank, or serially diluted compound 1 (10 μM to 0.0005 μM with 1:3 serial dilution). Cultures were incubated for 168 hours after which the number of viable cells in each test well was assessed using the CellTiter-Glo® Luminescent Cell Viability Assay. Luminescence readouts were performed using an EnVision® Multilabel Reader and the compound 1 readouts were normalized to the DMSO control readouts, expressed as a percent of the control. Outliers were flagged out by visual inspection. Percent of control was plotted against the corresponding compound 1 concentration and the absolute IC50 value was determined using four-parameter logistic non-linear regression as the concentration where inhibition was 50% of the control. […] Emax was recorded as the minimum in y with the compound dose range. […] The sensitive/moderate/resistant calls for each cell line was determined by visually inspecting the resulting clustering dendrogram. All the analyses were done in R Core Team.

[1] = 168 h, HUH28 (biliary tract, NS)
[2] = 168 h, KG1 (haematopoietic and lymphoid tissue, acute myeloid leukaemia)
[3] = 168 h, KURAMOCHI (ovary, undifferentiated carcinoma)
[4] = 168 h, NMCG1 (central nervous system, NS)
[5] = 168 h, T24 (urinary tract, transitional cell carcinoma)
[6] = 168 h, TE1 (oesophagus, squamous cell carcinoma)
[7] = 168 h, TE8 (oesophagus, squamous cell carcinoma)
[8] = BT20 (breast, ductal carcinoma)
[9] = BT474 (breast, ductal carcinoma)
[10] = C2BBE1 (large intestine, adenocarcinoma)
[11] = CAL27 (upper aerodigestive tract, squamous cell carcinoma)
[12] = CALU1 (lung, squamous cell carcinoma)
[13] = CAPAN2 (pancreas, ductal carcinoma)
[14] = CCFSTTG1 (central nervous system, astrocytoma)
[15] = DAOY (central nervous system, NS)
[16] = DMS53 (lung, small cell carcinoma)
[17] = HCC38 (breast, ductal carcinoma)
[18] = HCC1419 (breast, ductal carcinoma)
[19] = HCC1937 (breast, ductal carcinoma)
[20] = Homo sapiens, A204, 168 h, A204 (soft tissue, NS)
[21] = Homo sapiens, BT-20, 168 h, BT20 (breast, ductal carcinoma)
[22] = Homo sapiens, BT-474, 168 h, BT474 (breast, ductal carcinoma)
[23] = Homo sapiens, C2BBe1, 168 h, C2BBE1 (large intestine, adenocarcinoma)
[24] = Homo sapiens, CAL-27, 168 h, CAL27 (upper aerodigestive tract, squamous cell carcinoma)
[25] = Homo sapiens, CCF-STTG1, 168 h, CCFSTTG1 (central nervous system, astrocytoma)
[26] = Homo sapiens, Calu-1, 168 h, CALU1 (lung, squamous cell carcinoma)
[27] = Homo sapiens, Calu-3, 168 h, CALU3 (lung, adenocarcinoma)
[28] = Homo sapiens, Capan-2, 168 h, CAPAN2 (pancreas, ductal carcinoma)
[29] = Homo sapiens, DMS-53, 168 h, DMS53 (lung, small cell carcinoma)
[30] = Homo sapiens, Daoy, 168 h, DAOY (central nervous system, NS)
[31] = Homo sapiens, G-361, 168 h, G361 (skin, NS)
[32] = Homo sapiens, HCC38, 168 h, HCC38 (breast, ductal carcinoma)
[33] = Homo sapiens, HCC827, 168 h, HCC827 (lung, adenocarcinoma)
[34] = Homo sapiens, HCC1419, 168 h, HCC1419 (breast, ductal carcinoma)
[35] = Homo sapiens, HCC1428, 168 h, HCC1428 (breast, NS)
[36] = Homo sapiens, HCC1937, 168 h, HCC1937 (breast, ductal carcinoma)
[37] = Homo sapiens, HT-144, 168 h, HT144 (skin, NS)
[38] = Homo sapiens, Hs 695T, 168 h, HS695T (skin, NS)
[39] = Homo sapiens, KYSE-70, 168 h, KYSE70 (oesophagus, squamous cell carcinoma)
[40] = Homo sapiens, Kasumi 1, 168 h, KASUMI1 (haematopoietic and lymphoid tissue, acute myeloid leukaemia)
[41] = Homo sapiens, Lu-99, 168 h, LU99 (lung, large cell carcinoma)
[42] = Homo sapiens, MDA-MB-157, 168 h, MDAMB157 (breast, ductal carcinoma)
[43] = Homo sapiens, MDA-MB-175-VII, 168 h, MDAMB 175 VII (breast, ductal carcinoma)
[44] = Homo sapiens, MDA-MB-231, 168 h, MDAMB231 (breast, NS)
[45] = Homo sapiens, MDA-MB-361, 168 h, MDAMB361 (breast, NS)
[46] = Homo sapiens, MDA-MB-415, 168 h, MDAMB415 (breast, NS)
[47] = Homo sapiens, MDA-MB-436, 168 h, MDAMB436 (breast, NS)
[48] = Homo sapiens, MDA-MB-468, 168 h, MDAMB468 (breast, NS)
[49] = Homo sapiens, Malme-3M, 168 h, MALME3M (skin, NS)
[50] = Homo sapiens, MeWo, 168 h, MEWO (skin, NS)
[51] = Homo sapiens, NCI-H441, 168 h, NCIH441 (lung, adenocarcinoma)
[52] = Homo sapiens, NCI-H596, 168 h, NCIH596 (lung, mixed adenosquamous carcinoma)
[53] = Homo sapiens, NCI-H1395, 168 h, NCIH1395 (lung, adenocarcinoma)
[54] = Homo sapiens, NCI-H1563, 168 h, NCIH1563 (lung, adenocarcinoma)
[55] = Homo sapiens, NCI-H1573, 168 h, NCIH1573 (lung, adenocarcinoma)

CC(C)c1ccc(N(C)c2ccc3c(c2)OCC[C@H]3CNc2cnccc2C(=O)O)cc1 [Compound 1, 3-({[(4R)-7-{methyl[4-(propan-2-yl)phenyl]amino}-3,4-dihydro-2H-1-benzopyran-4-yl]methyl}amino)pyridine-4-carboxylic acid]
EC50 (168 h, HS688AT (skin, NS)): ≥ 10 µM | IC50 (168 h, HS688AT (skin, NS)): ≥ 10 µM | EC50 (168 h, HS739T (breast, NS)): ≥ 10 µM | IC50 (168 h, HS739T (breast, NS)): ≥ 10 µM | EC50 (168 h, HS839T (skin, NS)): ≥ 10 µM | IC50 (168 h, HS839T (skin, NS)): ≥ 10 µM | EC50 (168 h, HS852T (skin, NS)): ≥ 10 µM | IC50 (168 h, HS852T (skin, NS)): ≥ 10 µM | EC50 [1]: ≥ 10 µM | IC50 [1]: ≥ 10 µM | EC50 [2]: ≥ 10 µM | IC50 [2]: ≥ 10 µM | EC50 [3]: ≥ 10 µM | IC50 [3]: ≥ 10 µM | EC50 [4]: ≥ 10 µM | IC50 [4]: ≥ 10 µM | EC50 (168 h, SKMEL31 (skin, NS)): ≥ 10 µM | IC50 (168 h, SKMEL31 (skin, NS)): ≥ 10 µM | EC50 [5]: ≥ 10 µM | IC50 [5]: ≥ 10 µM | EC50 [6]: ≥ 10 µM | IC50 [6]: ≥ 10 µM | EC50 [7]: ≥ 10 µM | IC50 [7]: ≥ 10 µM | AUC (A204 (soft tissue, NS)): 0.7136 | Emax (A204 (soft tissue, NS)): 58.91 | AUC [8]: 0.9117 | Emax [8]: 78.79 | AUC [9]: 0.7206 | Emax [9]: 53.88 | AUC [10]: 0.8303 | Emax [10]: 59.34 | AUC [11]: 0.8335 | Emax [11]: 74.68 | AUC [12]: 1.217 | Emax [12]: 118.4694 | AUC (CALU3 (lung, adenocarcinoma)): 0.7277 | Emax (CALU3 (lung, adenocarcinoma)): 50.88 | AUC [13]: 0.8808 | Emax [13]: 75.02 | AUC [14]: 0.879 | Emax [14]: 78.9 | AUC [15]: 0.9684 | Emax [15]: 83.4 | AUC [16]: 0.7426 | Emax [16]: 49.07 | AUC (G361 (skin, NS)): 1.044 | Emax (G361 (skin, NS)): 89.52 | AUC [17]: 0.9864 | Emax [17]: 93.61 | AUC (HCC827 (lung, adenocarcinoma)): 0.8814 | Emax (HCC827 (lung, adenocarcinoma)): 74.84 | AUC [18]: 0.7201 | Emax [18]: 52.42 | AUC (HCC1428 (breast, NS)): 0.7818 | Emax (HCC1428 (breast, NS)): 59.9889 | AUC [19]: 0.9094 | Emax [19]: 80.9493 | AUC (HS688AT (skin, NS)): 1.105 | Emax (HS688AT (skin, NS)): 98.47 | AUC (HS695T (skin, NS)): 0.9238 | Emax (HS695T (skin, NS)): 74.11 | AUC (HS739T (breast, NS)): 0.8686 | Emax (HS739T (breast, NS)): 78.35 | AUC (HS839T (skin, NS)): 1.097 | Emax (HS839T (skin, NS)): 101.2434 | AUC (HS852T (skin, NS)): 0.883 | Emax (HS852T (skin, NS)): 78.51 | AUC (HT144 (skin, NS)): 0.8912 | Emax (HT144 (skin, NS)): 81.61 | AUC (HUH28 (biliary tract, NS)): 0.9862 | Emax (HUH28 (biliary tract, NS)): 92.15 | EC50 [20]: ≥ 10 µM | IC50 [20]: ≥ 10 µM | EC50 [21]: ≥ 10 µM | IC50 [21]: ≥ 10 µM | EC50 [22]: ≥ 10 µM | IC50 [22]: ≥ 10 µM | EC50 [23]: ≥ 10 µM | IC50 [23]: ≥ 10 µM | EC50 [24]: ≥ 10 µM | IC50 [24]: ≥ 10 µM | EC50 [25]: ≥ 10 µM | IC50 [25]: ≥ 10 µM | EC50 [26]: ≥ 10 µM | IC50 [26]: ≥ 10 µM | EC50 [27]: ≥ 10 µM | IC50 [27]: ≥ 10 µM | EC50 [28]: ≥ 10 µM | IC50 [28]: ≥ 10 µM | EC50 [29]: ≥ 10 µM | IC50 [29]: ≥ 10 µM | EC50 [30]: ≥ 10 µM | IC50 [30]: ≥ 10 µM | EC50 [31]: ≥ 10 µM | IC50 [31]: ≥ 10 µM | EC50 [32]: ≥ 10 µM | IC50 [32]: ≥ 10 µM | EC50 [33]: ≥ 10 µM | IC50 [33]: ≥ 10 µM | EC50 [34]: ≥ 10 µM | IC50 [34]: ≥ 10 µM | EC50 [35]: ≥ 10 µM | IC50 [35]: ≥ 10 µM | EC50 [36]: ≥ 10 µM | IC50 [36]: ≥ 10 µM | EC50 [37]: ≥ 10 µM | IC50 [37]: ≥ 10 µM | EC50 [38]: ≥ 10 µM | IC50 [38]: ≥ 10 µM | EC50 [39]: ≥ 10 µM | IC50 [39]: ≥ 10 µM | EC50 [40]: ≥ 10 µM | IC50 [40]: ≥ 10 µM | EC50 [41]: ≥ 10 µM | IC50 [41]: ≥ 10 µM | EC50 [42]: ≥ 10 µM | IC50 [42]: ≥ 10 µM | EC50 [43]: ≥ 10 µM | IC50 [43]: ≥ 10 µM | EC50 [44]: ≥ 10 µM | IC50 [44]: ≥ 10 µM | EC50 [45]: ≥ 10 µM | IC50 [45]: ≥ 10 µM | EC50 [46]: ≥ 10 µM | IC50 [46]: ≥ 10 µM | EC50 [47]: ≥ 10 µM | IC50 [47]: ≥ 10 µM | EC50 [48]: ≥ 10 µM | IC50 [48]: ≥ 10 µM | EC50 [49]: ≥ 10 µM | IC50 [49]: ≥ 10 µM | EC50 [50]: ≥ 10 µM | IC50 [50]: ≥ 10 µM | EC50 [51]: ≥ 10 µM | IC50 [51]: ≥ 10 µM | EC50 [52]: ≥ 10 µM | IC50 [52]: ≥ 10 µM | EC50 [53]: ≥ 10 µM | IC50 [53]: ≥ 10 µM | EC50 [54]: ≥ 10 µM | IC50 [54]: ≥ 10 µM | EC50 [55]: ≥ 10 µM | IC50 [55]: ≥ 10 µM
